Measured values as given in ChEMBL document CHEMBL5465560, “Selectivity Literature for EUbOPEN Chemogenomic Library” (2024).

Experiments:
[1] = target: Mitogen-activated protein kinase 14 (Homo sapiens, UniProt Q16539); assay: Selectivity interaction (Kinase panel (DSF assay)) EUB0001558a MAPK14
[2] = target: Receptor-interacting serine/threonine-protein kinase 2 (Homo sapiens, UniProt O43353); conditions: at 10 µM
[3] = target: Serine/threonine-protein kinase 38-like (Homo sapiens) (UniProt Q9Y2H1); assay: Selectivity interaction (ActivX KiNativ screen (kinase selectivity in THP-1 cell lysates)) EUB0000639a STK38L; format: subcellular; conditions: lysate
Sequence of Serine/threonine-protein kinase 38-like (Homo sapiens) (Q9Y2H1 2-464 limits assumed): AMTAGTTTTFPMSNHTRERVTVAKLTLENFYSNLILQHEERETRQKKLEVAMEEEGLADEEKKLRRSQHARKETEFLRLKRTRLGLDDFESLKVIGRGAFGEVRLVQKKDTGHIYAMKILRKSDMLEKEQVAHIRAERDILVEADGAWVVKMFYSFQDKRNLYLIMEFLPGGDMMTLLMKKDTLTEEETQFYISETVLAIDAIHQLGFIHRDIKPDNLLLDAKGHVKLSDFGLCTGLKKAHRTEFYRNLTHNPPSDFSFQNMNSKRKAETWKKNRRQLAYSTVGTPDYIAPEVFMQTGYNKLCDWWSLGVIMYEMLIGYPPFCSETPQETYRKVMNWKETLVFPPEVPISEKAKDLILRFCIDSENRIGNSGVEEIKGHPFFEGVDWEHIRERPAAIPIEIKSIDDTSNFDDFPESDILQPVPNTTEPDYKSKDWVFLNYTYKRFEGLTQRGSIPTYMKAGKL

[4] = target: T1, Serine/threonine-protein kinase STK11 (Homo sapiens) (UniProt Q15831); assay: Selectivity interaction (KinomeScan (DiscoverX)) EUB0000045b STK11
T1 sequence (whole entry): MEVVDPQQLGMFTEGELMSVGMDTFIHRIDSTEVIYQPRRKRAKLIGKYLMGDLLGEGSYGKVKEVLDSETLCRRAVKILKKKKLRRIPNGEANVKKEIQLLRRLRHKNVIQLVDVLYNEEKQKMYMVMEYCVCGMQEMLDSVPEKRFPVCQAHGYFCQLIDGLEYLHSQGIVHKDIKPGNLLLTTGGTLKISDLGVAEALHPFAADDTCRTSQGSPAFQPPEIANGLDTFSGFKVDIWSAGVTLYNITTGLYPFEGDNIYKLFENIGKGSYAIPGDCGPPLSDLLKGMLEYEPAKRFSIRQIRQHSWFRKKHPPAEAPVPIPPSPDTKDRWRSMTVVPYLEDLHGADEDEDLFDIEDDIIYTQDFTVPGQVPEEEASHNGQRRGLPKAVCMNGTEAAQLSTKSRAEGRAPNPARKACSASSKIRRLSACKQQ

[5] = target: T2, Serine/threonine-protein kinase Nek9 (Homo sapiens) (UniProt Q8TD19); assay: Selectivity interaction (KinomeScan (DiscoverX)) EUB0000045b NEK9
T2 sequence (whole entry): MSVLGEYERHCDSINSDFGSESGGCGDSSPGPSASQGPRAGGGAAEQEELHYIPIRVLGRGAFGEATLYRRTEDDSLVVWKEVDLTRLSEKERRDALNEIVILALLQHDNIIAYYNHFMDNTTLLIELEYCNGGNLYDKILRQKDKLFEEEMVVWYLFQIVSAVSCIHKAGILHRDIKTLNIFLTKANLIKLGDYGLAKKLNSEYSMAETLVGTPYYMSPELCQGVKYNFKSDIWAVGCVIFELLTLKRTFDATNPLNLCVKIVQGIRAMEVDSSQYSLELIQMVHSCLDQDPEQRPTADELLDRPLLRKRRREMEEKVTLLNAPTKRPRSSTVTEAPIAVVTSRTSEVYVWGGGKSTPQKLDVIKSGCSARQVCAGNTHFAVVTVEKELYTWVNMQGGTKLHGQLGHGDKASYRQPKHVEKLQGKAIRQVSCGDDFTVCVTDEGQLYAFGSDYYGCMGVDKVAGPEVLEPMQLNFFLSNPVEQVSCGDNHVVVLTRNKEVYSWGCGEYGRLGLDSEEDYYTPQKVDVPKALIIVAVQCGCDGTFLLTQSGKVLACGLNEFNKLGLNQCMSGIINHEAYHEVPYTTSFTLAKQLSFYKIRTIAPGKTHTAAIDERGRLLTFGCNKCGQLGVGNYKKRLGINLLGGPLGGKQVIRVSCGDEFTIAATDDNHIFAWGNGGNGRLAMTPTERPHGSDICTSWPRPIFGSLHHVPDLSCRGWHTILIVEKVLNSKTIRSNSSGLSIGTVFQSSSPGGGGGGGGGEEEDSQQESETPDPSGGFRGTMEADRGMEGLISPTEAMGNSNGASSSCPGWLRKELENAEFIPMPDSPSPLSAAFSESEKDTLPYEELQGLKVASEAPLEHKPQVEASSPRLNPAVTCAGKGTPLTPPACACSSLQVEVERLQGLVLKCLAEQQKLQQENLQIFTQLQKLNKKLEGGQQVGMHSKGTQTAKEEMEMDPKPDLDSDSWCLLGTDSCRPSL

[6] = target: Calcium/calmodulin-dependent protein kinase kinase 1 (Homo sapiens) (UniProt Q8N5S9); conditions: at 10 µM
Sequence of Calcium/calmodulin-dependent protein kinase kinase 1 (Homo sapiens) (Q8N5S9 whole entry, looked up): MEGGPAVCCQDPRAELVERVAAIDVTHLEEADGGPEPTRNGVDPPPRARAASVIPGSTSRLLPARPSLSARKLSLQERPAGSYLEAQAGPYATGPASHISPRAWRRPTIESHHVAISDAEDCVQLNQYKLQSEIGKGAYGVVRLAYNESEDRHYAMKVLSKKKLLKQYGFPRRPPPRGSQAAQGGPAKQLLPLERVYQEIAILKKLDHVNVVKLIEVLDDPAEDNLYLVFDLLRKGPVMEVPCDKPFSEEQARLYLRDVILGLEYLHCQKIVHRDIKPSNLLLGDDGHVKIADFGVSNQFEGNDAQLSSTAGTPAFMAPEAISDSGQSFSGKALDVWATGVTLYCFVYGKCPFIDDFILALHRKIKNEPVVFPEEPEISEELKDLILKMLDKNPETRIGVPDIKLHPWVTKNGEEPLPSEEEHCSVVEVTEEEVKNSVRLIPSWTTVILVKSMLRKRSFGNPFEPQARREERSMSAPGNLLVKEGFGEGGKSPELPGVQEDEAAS

[7] = target: Tyrosine-protein kinase Fgr (Homo sapiens) (UniProt P09769); assay: Selectivity interaction (KinomeScan (DiscoverX)) EUB0000607a FGR; conditions: at 10 µM
Sequence of Tyrosine-protein kinase Fgr (Homo sapiens) (P09769 2-529 limits assumed): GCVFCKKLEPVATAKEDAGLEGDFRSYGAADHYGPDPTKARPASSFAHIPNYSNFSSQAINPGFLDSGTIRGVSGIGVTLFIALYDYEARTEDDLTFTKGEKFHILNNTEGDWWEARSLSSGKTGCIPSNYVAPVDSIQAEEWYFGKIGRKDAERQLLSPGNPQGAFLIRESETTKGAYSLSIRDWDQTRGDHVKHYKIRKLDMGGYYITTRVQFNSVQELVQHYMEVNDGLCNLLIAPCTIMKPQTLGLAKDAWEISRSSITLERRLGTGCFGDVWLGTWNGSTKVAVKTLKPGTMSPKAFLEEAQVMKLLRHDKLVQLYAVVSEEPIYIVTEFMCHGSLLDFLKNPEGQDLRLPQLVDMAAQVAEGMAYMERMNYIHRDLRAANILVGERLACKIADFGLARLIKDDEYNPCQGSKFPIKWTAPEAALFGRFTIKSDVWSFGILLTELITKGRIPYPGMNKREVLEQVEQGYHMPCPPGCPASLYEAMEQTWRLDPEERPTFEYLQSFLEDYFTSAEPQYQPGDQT

[8] = target: Acetylcholine receptor subunit alpha (Homo sapiens, UniProt P02708); assay: Selectivity interaction (Panel of kinases, GPCRs, ion channels and transporters (enzymatic assay)) EUB0000223bCl CHRNA1
Sequence of Acetylcholine receptor subunit alpha (P02708 whole entry): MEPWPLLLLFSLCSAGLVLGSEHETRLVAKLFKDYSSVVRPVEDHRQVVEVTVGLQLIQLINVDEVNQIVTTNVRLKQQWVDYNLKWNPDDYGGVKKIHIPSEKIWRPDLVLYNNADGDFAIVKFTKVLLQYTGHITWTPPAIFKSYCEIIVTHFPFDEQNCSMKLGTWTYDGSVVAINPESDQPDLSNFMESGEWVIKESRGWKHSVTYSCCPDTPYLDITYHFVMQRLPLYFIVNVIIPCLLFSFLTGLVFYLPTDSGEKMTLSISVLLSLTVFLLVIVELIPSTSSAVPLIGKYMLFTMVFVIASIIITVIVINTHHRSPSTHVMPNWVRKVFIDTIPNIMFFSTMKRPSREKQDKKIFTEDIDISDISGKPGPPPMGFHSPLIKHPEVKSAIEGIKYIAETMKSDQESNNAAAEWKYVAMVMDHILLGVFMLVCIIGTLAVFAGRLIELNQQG

[9] = target: T3, 5-hydroxytryptamine receptor 2C (Homo sapiens) (UniProt P28335); assay: Selectivity interaction (Panel of kinases, GPCRs, ion channels and transporters (enzymatic assay)) EUB0000223bCl HTR2C
T3 sequence (whole entry): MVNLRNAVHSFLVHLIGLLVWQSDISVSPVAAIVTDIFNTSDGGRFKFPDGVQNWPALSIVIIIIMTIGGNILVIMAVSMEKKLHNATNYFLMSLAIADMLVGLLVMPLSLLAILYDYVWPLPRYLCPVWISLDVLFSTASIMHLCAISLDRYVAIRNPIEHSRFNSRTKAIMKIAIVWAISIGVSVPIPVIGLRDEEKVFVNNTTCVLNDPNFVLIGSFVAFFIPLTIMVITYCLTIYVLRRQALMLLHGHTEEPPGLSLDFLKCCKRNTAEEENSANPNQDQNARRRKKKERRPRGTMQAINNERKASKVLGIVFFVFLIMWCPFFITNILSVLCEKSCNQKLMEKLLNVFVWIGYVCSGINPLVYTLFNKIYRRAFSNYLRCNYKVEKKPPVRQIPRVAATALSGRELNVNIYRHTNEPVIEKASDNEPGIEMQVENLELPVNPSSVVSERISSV

Sequence of Mitogen-activated protein kinase 14 (Q16539 whole entry): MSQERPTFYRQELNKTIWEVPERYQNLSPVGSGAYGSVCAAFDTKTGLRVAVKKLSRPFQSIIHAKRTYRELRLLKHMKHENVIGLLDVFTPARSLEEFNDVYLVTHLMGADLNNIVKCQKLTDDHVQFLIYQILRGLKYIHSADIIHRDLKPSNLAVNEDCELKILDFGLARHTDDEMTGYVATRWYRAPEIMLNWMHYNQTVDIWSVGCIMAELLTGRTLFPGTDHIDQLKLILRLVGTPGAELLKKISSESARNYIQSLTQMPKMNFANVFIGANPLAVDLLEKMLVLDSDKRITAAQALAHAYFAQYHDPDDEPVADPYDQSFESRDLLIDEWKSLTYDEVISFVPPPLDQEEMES
Sequence of Receptor-interacting serine/threonine-protein kinase 2 (O43353 whole entry): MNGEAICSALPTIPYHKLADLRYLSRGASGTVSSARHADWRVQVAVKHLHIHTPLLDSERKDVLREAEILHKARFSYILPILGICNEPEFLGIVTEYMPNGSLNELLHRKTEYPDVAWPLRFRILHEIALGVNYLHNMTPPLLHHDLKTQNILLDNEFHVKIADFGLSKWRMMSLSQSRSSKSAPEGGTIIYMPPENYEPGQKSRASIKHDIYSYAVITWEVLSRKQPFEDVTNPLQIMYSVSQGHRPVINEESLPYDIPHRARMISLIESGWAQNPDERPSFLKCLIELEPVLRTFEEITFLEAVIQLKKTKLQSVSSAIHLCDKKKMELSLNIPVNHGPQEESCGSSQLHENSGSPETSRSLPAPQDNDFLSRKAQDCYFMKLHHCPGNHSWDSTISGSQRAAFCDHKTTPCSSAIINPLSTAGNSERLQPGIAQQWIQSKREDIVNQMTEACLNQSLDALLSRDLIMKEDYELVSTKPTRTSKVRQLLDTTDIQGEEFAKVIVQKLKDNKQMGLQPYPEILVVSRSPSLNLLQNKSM

SMILES: CC(C)(O)[C@H](F)CN1Cc2cc(NC(=O)c3cnn4cccnc34)c(N3CCOCC3)cc2C1=O
- dTM [1]: 0.3 K

SMILES: CCN(CC)CCCCNc1ncc2cc(-c3cc(OC)cc(OC)c3)c(NC(=O)NC(C)(C)C)nc2n1
- % of control [2]: 100%

SMILES: CC[C@@H]1[C@H](F)C(=O)N[C@@H]1COc1nccc2cc(C(N)=O)c(OC)cc12 [ZIMLOVISERTIB]
- % of inhibition ([3]; at 0.01 µM): 5.2%
- % of inhibition ([3]; at 0.04 µM): -2%
- % of inhibition ([3]; at 0.2 µM): 12%
- % of inhibition ([3]; at 1 µM): 51.5%
- % of inhibition ([3]; at 5 µM): 82.9%

SMILES: C=CC(=O)Nc1cc(-n2c(=O)ccc3cnc4ccc(-c5ccc(NS(C)(=O)=O)cc5)cc4c32)ccc1C
- % of control ([4]; at 1 µM): 79%
- % of control ([4]; at 10 µM): 100%
- % of control ([5]; at 1 µM): 100%
- % of control ([5]; at 10 µM): 65%

SMILES: Cc1cc([C@@H](C)Nc2ccccc2C(=O)O)c2nc(N3CCOCC3)cc(=O)n2c1 [AZD-6482]
- % of control [6]: 98%

SMILES: CNC(=O)Nc1ccc(-c2nc(N3CC4CCC(C3)O4)c3cnn(C4CCC5(CC4)OCCO5)c3n2)cc1
- % of control [7]: 100%

SMILES: COc1cc(C(=O)N2CC[C@@H](O)[C@@H](N)C2)cc2nc(-c3cc4ccccc4n3CC3CC3)n(C)c12
- pXC50 [8]: < 4.3 M
- pXC50 [9]: < 4.4 M
